Measurements published in patent publication US20250161476A1 (REGENERON PHARMACEUTICALS, INC., priority 2020, published 2025).

Tests used:
[1] = target: human glucagon-like peptide 2 receptor (GLP2R) (Homo sapiens (Human), UniProt O95838); assay: CRE-luciferase reporter bioassay, HEK293/Myc-hGLP2R/Cre-Luc cell line; format: cell-based
Description: (§4) Cells were incubated overnight at 37° C. in 5% CO2. […] Plates were incubated for 5.5 h at 37° C. in 5% CO2. For end-point measurement, 100 μL/well of One-Glo reagent (Promega, #E6051) was added and plates were kept at room temperature for 5-10 minutes. Luciferase activity was measured on Envision Multilabel Plate Reader (Perkin Elmer) in Luminescent mode. The relative light units (RLU) values were obtained and the results were analyzed using nonlinear regression with GraphPad Prism software (GraphPad).

[2] = human, 4 h, 2 µM
Description: An assay was performed to determine the plasma protein binding of compounds of the disclosure. For the assay, on the day of experiment, the plasma was thawed in cold water and centrifuged at 3220 rpm for 5 minutes to remove any clots. The pH value of the resulting plasma was checked
For the dialysis, the test compound and control compound were dissolved in DMSO to achieve 10 mM stock solutions. DMSO working solutions were prepared at 400 μM. To prepare the loading matrix, compound working solutions (5 μL) were added in a 1:200 ratio to blank matrix (995 μL) and mixed thoroughly. To prepare the time zero (TO) samples to be used for recovery determination, 50 μL aliquots of loading matrix were transferred in triplicate to the sample collection plate. The samples were immediately matched with opposite blank buffer to obtain a final volume of 100 μL of 1:1 matrix/dialysis buffer (v/v) in each well. 500 μL of stop solution were added to these TO samples. This was then stored at 2-8° C. pending further processes along with other post-dialysis samples. To load the dialysis device, an aliquot of 150 μL of the loading matrix was transferred to the donor side of each dialysis well in triplicate, and 150 μL of the dialysis buffer was loaded to the receiver side of the well. […]
The percent unbound, percent bound, and percent recovery values were calculated using the following equations: […]

[3] = target: human gastric inhibitory polypeptide receptor (GIPR) (Homo sapiens (Human), UniProt P48546); assay: CRE-luciferase reporter bioassay, HEK293/Myc-hGIPR/Cre-Luc cell line; format: cell-based
Sequence of human gastric inhibitory polypeptide receptor (GIPR) (P48546 22-466): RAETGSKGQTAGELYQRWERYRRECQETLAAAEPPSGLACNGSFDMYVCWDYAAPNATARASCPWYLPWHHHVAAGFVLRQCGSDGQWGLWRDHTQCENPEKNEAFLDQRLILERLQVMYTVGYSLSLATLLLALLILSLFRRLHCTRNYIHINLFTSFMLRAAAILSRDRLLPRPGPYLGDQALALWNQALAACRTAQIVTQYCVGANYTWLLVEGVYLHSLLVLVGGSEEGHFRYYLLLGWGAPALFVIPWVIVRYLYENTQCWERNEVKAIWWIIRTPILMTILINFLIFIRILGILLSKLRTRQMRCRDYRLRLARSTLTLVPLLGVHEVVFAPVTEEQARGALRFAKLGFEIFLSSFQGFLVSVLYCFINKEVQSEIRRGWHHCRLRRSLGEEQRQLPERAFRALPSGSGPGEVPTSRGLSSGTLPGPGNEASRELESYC
Description: as §4

[4] = Plasma stability of payloads and linker-payloads, mouse plasma; format: in vitro ADME; conditions: assay time 3 days
Description: (§1) The plasma stability of payloads and linker payloads of the disclosure were measured. For the assay, pooled frozen plasma (human, mouse or monkey) was thawed in cold water or a 37° C. water bath prior to experiment. Plasma was centrifuged at 4000 rpm for 5 min if any clots were observed, they were subsequently removed. If required, the pH was adjusted to 7.4±0.1. For the preparation of compounds and positive controls, a 1 mM intermediate solution was prepared by diluting 10 μL of their stock solution with 90 μL DMSO; a 1 mM intermediate solution of the positive control (Propantheline) was prepared by diluting 10 μL of its stock solution with 90 μL ultrapure water. Subsequently, 100 μM dosing solution for each compound was prepared by diluting 20 μL of the intermediate solution (1 mM) with 180 μL 45% MeOH/H2O. 98 μL of plasma was spiked with 2 μL of dosing solution (100 μM) to achieve the final concentration of 2 μM in duplicate. Samples were then incubated at 37° C. in a water bath. […] At each time point, 400 μL of stop solution (200 ng/mL tolbutamide plus 200 ng/mL labetalol in 50% ACN/MeOH) was added to precipitate protein and mixed thoroughly. Sample plates were then centrifuged at 4,000 rpm for 10 min. An aliquot of supernatant (50 μL) was transferred from each well and mixed with 100 μL ultra-pure water. […]

[5] = Liver microsome stability (intrinsic clearance); format: in vitro ADME; conditions: microsomes
Description: To assess the in vitro ADME properties of the LP, microsomal stability assay was performed to determine intrinsic clearance, and plasma protein binding assay was performed to understand the distribution potential.

[6] = Plasma stability of payloads and linker-payloads, monkey plasma; format: in vitro ADME; conditions: assay time 3 days
Description: as §1

HEK293/CRE-Luc cells = assay: cAMP responsive luciferase reporter assay, HEK293/CRE-Luc cells (no hGLP1R expression); format: cell-based, human
From the text: (§2) To test the activity of GLP1R agonist payloads, GLP1R agonist linker-payloads (LPs), and anti-GLP1R antibody tethered drug conjugates (ATDCs) of the disclosure, a cell-based cAMP responsive luciferase reporter assay was developed. To generate the assay cell line, the firefly luciferase gene was placed under the control of a cAMP response element (CRE) located upstream of a minimal promoter and transfected into HEK293 cells and referred to herein as HEK293/CRE-Luc cells.
(§3) Three-fold serial dilutions of free payloads or LPs were prepared in 100% DMSO, transferred to fresh assay media, and added to the cells at a final constant DMSO concentration of 0.2%. The last well in the plate served as a blank control containing only the assay media and 0.2% DMSO (untreated well) and was plotted as a continuation of the 3-fold serial dilution. Four to six hours later, luciferase activity was determined after the addition of One-Glo™ reagent (Promega, Cat #E6130) to each well. Relative light units (RLUs) were measured on an Envision luminometer (PerkinElmer) and EC50 values were determined using a four-parameter logistic equation over a 12-point dose response curve (GraphPad Prism). The signal to noise (S/N) was determined by taking the ratio of the highest RLU on the dose response curve to the RLU in the untreated wells.

[7] = system: Salmonella typhimurium TA98 and TA100; assay: Mini-Ames reverse mutation assay with and without S9 mix; format: cell-based
Description: The objective of this Mini-Ames study was to evaluate the test article LP11, for its ability to induce reverse mutations in the genome of strains of Salmonella typhimurium TA98 and TA100 in the presence and absence of metabolic activation (S9 mixture).
The Mini-Ames assay was conducted for the test article in the presence and absence of the S9 mixture, concurrently with the negative/solvent control (DMSO) using six wells and positive controls (2 μg/well TA98 alone, 0.2 μg/well TA100 alone or 0.4 μg/well TA98+TA100 in the presence of S9) using three wells. The tested dose levels for the test article, in the presence and absence of S9 mix, were 1000, 400, 160, 64, 25, 10, 4, and 1.5 μg per well, with each dose tested in triplicate. The study was conducted using fresh cultures of the bacterial strains and fresh test article formulations.

human GLP1R = human GLP1R (Homo sapiens (Human), UniProt P43220); assay: cAMP responsive luciferase reporter assay, HEK293/CRE-Luc/hGLP1R cells; format: cell-based
Sequence of human GLP1R (P43220 24-463): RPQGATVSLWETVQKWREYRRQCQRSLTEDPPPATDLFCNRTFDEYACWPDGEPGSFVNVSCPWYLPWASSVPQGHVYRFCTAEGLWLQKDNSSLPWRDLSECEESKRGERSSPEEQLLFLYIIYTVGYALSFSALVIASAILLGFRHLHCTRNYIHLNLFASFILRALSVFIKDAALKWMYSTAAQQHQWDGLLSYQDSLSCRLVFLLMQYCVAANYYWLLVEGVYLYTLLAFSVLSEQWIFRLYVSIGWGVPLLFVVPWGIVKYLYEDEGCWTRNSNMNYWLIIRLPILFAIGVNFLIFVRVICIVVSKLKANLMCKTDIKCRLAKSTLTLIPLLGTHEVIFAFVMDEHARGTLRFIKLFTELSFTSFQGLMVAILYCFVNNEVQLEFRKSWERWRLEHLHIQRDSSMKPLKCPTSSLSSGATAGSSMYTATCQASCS
From the text: as §2, §3
GLP1R agonist linker payloads were conjugated to anti-hGLP1R antibodies via N-terminal heavy or light chain Q tags. Several resulting anti-GLP1R antibody tethered drug conjugates (ATDCs) were tested for activity in the HEK293/CRE-Luc/hGLP1R reporter assay as described above for the free GLP1R payload and linker-payload agonists.

[8] = target: human glucagon receptor (GCGR) (Homo sapiens (Human), UniProt P47871); assay: CRE-luciferase reporter bioassay, HEK293/Myc-hGCGR/Cre-Luc cell line; format: cell-based
Sequence of human glucagon receptor (GCGR) (P47871 26-477): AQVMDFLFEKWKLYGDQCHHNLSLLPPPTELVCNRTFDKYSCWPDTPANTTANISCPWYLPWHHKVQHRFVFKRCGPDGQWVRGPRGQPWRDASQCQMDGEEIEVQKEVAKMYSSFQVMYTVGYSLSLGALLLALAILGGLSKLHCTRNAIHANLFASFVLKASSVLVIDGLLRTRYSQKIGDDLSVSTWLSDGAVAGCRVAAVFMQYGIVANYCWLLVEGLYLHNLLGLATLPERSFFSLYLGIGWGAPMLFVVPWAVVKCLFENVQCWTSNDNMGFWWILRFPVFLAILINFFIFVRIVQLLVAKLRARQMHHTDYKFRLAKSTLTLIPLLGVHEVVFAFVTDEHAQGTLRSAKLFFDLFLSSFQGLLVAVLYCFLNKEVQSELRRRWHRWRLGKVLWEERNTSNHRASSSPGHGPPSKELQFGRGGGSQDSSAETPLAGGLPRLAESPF
Description: as §4

[9] = relative to P8 of the same experiment

Sequence of human glucagon-like peptide 2 receptor (GLP2R) (O95838 whole entry): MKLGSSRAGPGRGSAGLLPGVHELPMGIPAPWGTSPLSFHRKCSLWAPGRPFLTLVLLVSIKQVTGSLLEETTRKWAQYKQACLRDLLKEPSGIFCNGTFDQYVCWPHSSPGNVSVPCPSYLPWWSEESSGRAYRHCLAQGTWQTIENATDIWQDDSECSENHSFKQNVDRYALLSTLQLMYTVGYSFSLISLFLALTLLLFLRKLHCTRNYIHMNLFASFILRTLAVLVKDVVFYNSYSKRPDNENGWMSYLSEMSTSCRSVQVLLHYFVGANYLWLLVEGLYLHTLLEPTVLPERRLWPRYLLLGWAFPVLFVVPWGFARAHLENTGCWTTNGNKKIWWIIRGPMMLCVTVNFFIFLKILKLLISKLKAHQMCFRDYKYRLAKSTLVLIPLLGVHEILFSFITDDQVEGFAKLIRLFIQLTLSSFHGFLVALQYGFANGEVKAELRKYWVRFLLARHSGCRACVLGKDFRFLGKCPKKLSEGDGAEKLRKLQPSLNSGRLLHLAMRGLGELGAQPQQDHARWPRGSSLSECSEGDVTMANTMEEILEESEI

| SMILES | CRE-dependent reporter activity ([1]; HEK293/Myc-hGLP2R/Cre-Luc) | % Recovery [2] [%] | GLP2R, GIPR, or GCGR EC50 ([1]; GLP2R) | GLP2R, GIPR, or GCGR EC50 [3] | plasma stability T½ [4] [h] | CLint(liver) [5] [mL/min/kg] | T1/2 [5] [h] | plasma stability T½ [6] [h] | EC50 (HEK293/CRE-Luc cells) [nM] | HEK293/CRE-LUC S/N (HEK293/CRE-Luc cells) | cytotoxicity in tester strains ([7]; 1.5-1000 μg per well, with or without S9 mix) | mutagenicity ([7]; Mini-Ames conclusion) | Ames (TA98 and TA100) in the presence and absence of S9 ([7]; TA98 and TA100, with and without S9) | increase in the mean number of revertant colonies relative to negative/solvent control ([7]; TA98 or TA100, any dose level, presence or absence of S9 mix) [fold] | HEK293/CRE-LUC/hGLP1R S/N (human GLP1R; highest RLU / RLU of untreated wells) | HEK293/CRE-LUC/hGLP1R Relative Potency (% P8 EC50) (human GLP1R; [9]) [%] | HEK293/CRE-LUC/hGLP1R Relative Signal:Noise (% P8) (human GLP1R; [9]) [%] | GLP2R, GIPR, or GCGR EC50 [8] |
| --- | --- | --- | --- | --- | --- | --- | --- | --- | --- | --- | --- | --- | --- | --- | --- | --- | --- | --- |
| CC[C@H](C)[C@H](NC(=O)[C@H](Cc1ccccc1)NC(=O)[C@H](CC(=O)O)NC(=O)[C@H](CCCNC(=N)N)NC(=O)[C@H](C)NC(=O)[C@H](C)NC(=O)[C@H](CC(C)C)NC(=O)[C@H](CC(N)=O)NC(=O)[C@H](CC(=O)O)NC(=O)[C@H](CC(C)C)NC(=O)[C@@H](NC(=O)[C@@H](NC(=O)[C@H](CC(N)=O)NC(=O)[C@H](CCSC)NC(=O)[C@H](CCC(=O)O)NC(=O)[C@H](CC(=O)O)NC(=O)[C@H](CO)NC(=O)[C@H](Cc1ccccc1)NC(=O)[C@H](CO)NC(=O)CNC(=O)[C@H](CC(=O)O)NC(=O)[C@H](C)NC(=O)[C@@H](N)Cc1c[nH]cn1)[C@@H](C)O)[C@@H](C)CC)C(=O)N[C@@H](CC(N)=O)C(=O)N[C@@H](Cc1c[nH]c2ccccc12)C(=O)N[C@@H](CC(C)C)C(=O)N[C@H](C(=O)N[C@@H](CCC(N)=O)C(=O)N[C@H](C(=O)N[C@@H](CCCCN)C(=O)N[C@H](C(=O)N[C@H](C(=O)N[C@@H](CC(=O)O)C(=O)O)[C@@H](C)O)[C@@H](C)CC)[C@@H](C)O)[C@@H](C)CC [GLP2, reference compound] | activated individual cell lines as expected | – | – | – | – | – | – | – | – | – | – | – | – | – | – | – | – | – |
| CCc1cc(OCCCCn2cc(COCCOCCOCCOCCOCCOCCOCCOCCN)nn2)ccc1-c1ccc(C[C@H](NC(=O)[C@H](CC(=O)O)NC(=O)[C@H](CO)NC(=O)[C@@H](NC(=O)C(C)(Cc2ccccc2F)NC(=O)[C@@H](NC(=O)CNC(=O)[C@H](Cc2nn[nH]n2)NC(=O)C(C)(C)C(=O)NCCc2cnc[nH]2)[C@@H](C)O)[C@@H](C)O)C(=O)N[C@@H](CCCc2cc(C)cc(C)c2)C(N)=O)cc1 (stereo partly drawn) [LP11, NH2-PEG8-triazole-P8] | – | 89.2 | Completely inactive | Completely inactive | >140 | <8.6 | >2.42 | >49.4 | > 200 | 1.3 | no obvious cytotoxicity | negative for mutagenicity | Negative for | ≤ 2.0 | 74.5 | 33.1 | 113.3 | Completely inactive |
